The record followed here is US12227509B2, “Dihydropyrazolopyrazinone derivative having MGAT2 inhibitory activity” (Shionogi & Co., Ltd., priority 2019, dated 2025).

recombinant human MGAT2, sequence (Q3SYC2 whole entry): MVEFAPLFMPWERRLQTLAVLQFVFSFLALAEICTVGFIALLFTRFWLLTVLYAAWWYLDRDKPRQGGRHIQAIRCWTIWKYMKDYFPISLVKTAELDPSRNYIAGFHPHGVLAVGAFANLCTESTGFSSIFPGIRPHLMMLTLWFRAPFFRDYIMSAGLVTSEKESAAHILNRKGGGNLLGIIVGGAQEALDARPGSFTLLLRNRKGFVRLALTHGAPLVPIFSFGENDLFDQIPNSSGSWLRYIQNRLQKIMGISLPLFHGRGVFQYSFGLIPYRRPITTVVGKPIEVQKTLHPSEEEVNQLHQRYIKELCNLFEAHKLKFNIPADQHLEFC

The target in the first series is recombinant human MGAT2 (Homo sapiens (Human), UniProt Q3SYC2). As to the kind of experiment: Measurement of human MGAT2 inhibitory activity. The format is biochemical. The settings on record: concentration exhibiting 50% enzyme inhibition; recombinant human MGAT2, 2-Oleoylglycerol/Oleoyl-CoA. On the procedure:
A full-length human MGAT2 gene to which a Flag-tag had been added at the N-terminal was inserted into pFastBac (from Invitrogen). A recombinant baculovirus was produced in accordance with the protocol for a Bac-to-Bac baculovirus expression system (produced by Invitrogen), and Sf-9 cells were infected therewith. The cells were collected and sonicated, and then the membrane fraction was collected through centrifugation. Western blotting analysis with an anti-Flag antibody was performed for the membrane fraction to confirm expression, and the membrane fraction was used as a recombinant human MGAT2 enzyme solution.
Solutions of the compounds of the present invention in DMSO were each aliquoted into 0.2-μL portions in a 384-well polystyrene microplate produced by Corning Incorporated, and 5 μL of an enzyme solution prepared with an assay buffer (100 mmol/L phosphate buffer (pH 7.4) containing 2 mmol/L DTT) and 5 μL of a substrate solution (100 mmol/L phosphate buffer (pH 7.4), 30 μmol/L 2-Oleoylglycerol, 10 μmol/L Oleoyl-CoA) were added thereto, and the resultant was stirred and centrifuged, and incubated in a moist chamber at room temperature for 1 hour. After enzymatic reaction, 50 μL of a quenching solution (containing 0.2 μmol/L Diolein-d5, 0.4% formic acid, and 50% isopropanol) containing Internal Standard (IS) was added to terminate the reaction, and the resultant was sealed in a plate produced by Shimadzu GLC Ltd., and then stirred and centrifuged, and measurement was performed by using an electrospray ionization method with a RapidFire360 and Agilent 6550 Q-TOF mass spectrometer. Diolein as a reaction product (P) of 2-Oleoylglycerol as the substrate and an ammonium adduct ion of the IS were detected, and the peak intensity ratio, P/IS, was calculated from the peak heights to evaluate the inhibitory activity. Inhibitory activities with/without addition of enzyme were defined as Control (+)/Control (−), respectively, and the respective % inhibitions were defined as 0% inhibition and 100% inhibition. The inhibitory activity was calculated from formula below with TIBCO Spotfire (produced by TIBCO Software Inc.)
Inhibitory activity (%)=[1−{Sample−Control (−)}/{Control (+)−Control (−)}]*100 where Sample indicates a peak intensity ratio: P/IS, when the compound of the present invention was added.
Consider `N#Cc1ccc(-c2nn3c(c2NC(=O)c2ccno2)C(=O)N[C@@]2(CCc4cc(OCC(F)(F)F)ccc42)C3)nc1` [Compound I-13], for which the 50% inhibitory concentration (IC50) turned out to be 1.93 nM. Same read-out and setting: under `CS(=O)(=O)CC(=O)Nc1c(-c2ccc(F)cc2)nn2c1C(=O)NC1(CN(c3ccc(C(F)(F)F)cc3)C1)C2` [Compound I-61] stands 1.41 nM; under `CC(C)(O)c1ccc(-c2nn3c(c2NC(=O)CS(C)(=O)=O)C(=O)N[C@]2(CCc4cc(OCC(F)(F)F)ccc42)C3)cc1` [Compound I-93], 9.47 nM; under `CS(=O)(=O)CC(=O)Nc1c(-c2ccc(OC(F)(F)F)cc2)nn2c1C(=O)N[C@@]1(CCc3cc(OCC(F)(F)F)ccc31)C2` [Compound I-27], 7.01 nM. Take `CS(=O)(=O)CC(=O)Nc1c(-c2ccc(C#N)cn2)nn2c1C(=O)NC1(CN(c3ccc(C(F)(F)F)cc3)C1)C2` [Compound I-7]: the IC50 is 3.04 nM. As to `CS(=O)(=O)CC(=O)Nc1c(CCC2CC2)nn2c1C(=O)N[C@@]1(CCc3cc(F)cc(F)c31)C2` [Compound I-140], the 50% inhibitory concentration (IC50) came to 11.1 nM. The same measure, in the same setting: the result for `CS(=O)(=O)CC(=O)Nc1c(-c2ccc(C(F)(F)F)cc2)nn2c1C(=O)N[C@]1(CCc3cc(OCC(F)(F)F)ccc31)C2` [Compound I-81] reads 1.54 nM. Turning to `CS(=O)(=O)CC(=O)Nc1c(-c2cc(F)cc(F)c2)nn2c1C(=O)N[C@]1(CCc3cc(OCC(F)(F)F)ccc31)C2` [Compound I-98], the IC50 was 2.15 nM. For the compound `CS(=O)(=O)CC(=O)Nc1c(CCC2CC2)nn2c1C(=O)N[C@]1(CCc3cc(F)cc(F)c31)C2` [Compound I-149], the IC50 worked out at 23.4 nM.

As to `CS(=O)(=O)CC(=O)Nc1c(-c2ccccn2)nn2c1C(=O)N[C@@]1(CCc3cc(OCC(F)(F)F)ccc31)C2` [Compound I-19], the IC50 was 5.19 nM. Still for that read-out and setting: under `Cc1ccc(-c2nn3c(c2NC(=O)c2ccno2)C(=O)N[C@@]2(CCc4cc(OCC(F)(F)F)ccc42)C3)nc1` [Compound I-42] stands 11.3 nM; under `CS(=O)(=O)CC(=O)Nc1c(-c2ccc(C3CC3)cc2)nn2c1C(=O)N[C@]1(CCc3cc(OCC(F)(F)F)ccc31)C2` [Compound I-85], 2.88 nM; under `CS(=O)(=O)CC(=O)Nc1c(-c2ccc(C3CC3)cc2)nn2c1C(=O)N[C@@]1(CCc3cc(OCC(F)(F)F)ccc31)C2` [Compound I-29], 4.91 nM.

Turning to `Cc1cc(-c2nn3c(c2NC(=O)CS(C)(=O)=O)C(=O)N[C@@]2(CCc4cc(OCC(F)(F)F)ccc42)C3)ccc1F` [Compound I-32], the IC50 was 1.19 nM.

For the compound `CNS(=O)(=O)CC(=O)Nc1c(-c2ccc(C)cn2)nn2c1C(=O)N[C@@]1(CCc3cc(OCC(F)(F)F)ccc31)C2` [Compound I-45], the IC50 worked out at 1.09 nM.

Consider `CS(=O)(=O)CC(=O)Nc1c(-c2ccc(OC3CC3)cc2)nn2c1C(=O)N[C@@]1(CCc3cc(OCC(F)(F)F)ccc31)C2` [Compound I-30], for which the IC50 amounted to 193 nM. Same read-out and setting: the result for `CS(=O)(=O)CC(=O)Nc1c(-c2ccc(C#N)cc2)nn2c1C(=O)N[C@@]1(CCc3cc(OCC(F)(F)F)ccc31)C2` [Compound I-31] reads 2.23 nM. On the same count and under the same terms, the result for `N#Cc1ccc(-c2nn3c(c2NC(=O)CC(F)(F)F)C(=O)N[C@]2(CCc4cc(OCC(F)(F)F)ccc42)C3)nc1` [Compound I-9] reads 22.5 nM; that for `Cc1ccc(-c2nn3c(c2NC(=O)c2ccno2)C(=O)N[C@]2(CCc4cc(OCC(F)(F)F)ccc42)C3)nc1` [Compound I-38], 5.31 nM.

Take `Cc1ccc(-c2nn3c(c2NC(=O)CS(C)(=O)=O)C(=O)NC2(CCc4cc(OCc5ccccc5)ccc42)C3)nc1` (stereo not drawn) [Compound I-55]: the IC50 is 1 nM. Same read-out and setting: under `Cc1cc(F)ccc1-c1nn2c(c1NC(=O)CS(C)(=O)=O)C(=O)N[C@]1(CCc3cc(OCC(F)(F)F)ccc31)C2` [Compound I-91] stands 19.5 nM. Turning to `Cc1ccc(-c2nn3c(c2NC(=O)CS(=O)(=O)N(C)C)C(=O)N[C@@]2(CCc4cc(OCC(F)(F)F)ccc42)C3)nc1` [Compound I-128], the IC50 came to 91.9 nM. In the case of `Cc1ccc(-c2nn3c(c2NC(=O)CS(C)(=O)=O)C(=O)N[C@]2(CCc4cc(OCC(F)(F)F)ccc42)C3)cc1` [Compound I-76], the IC50 turned out to be 1.94 nM. As to `Cc1ccc(-c2nn3c(c2NC(=O)CS(C)(=O)=O)C(=O)N[C@]2(CCc4cc(OCC(F)(F)F)ccc42)C3)nc1` [Compound I-5], the IC50 came to 2.81 nM. Turning to `COc1ccc(-c2nn3c(c2NC(=O)CS(C)(=O)=O)C(=O)N[C@]2(CCc4cc(OCC(F)(F)F)ccc42)C3)cc1` [Compound I-82], the concentration for half-maximal inhibition (IC50) came out at 6.51 nM. Take `CS(=O)(=O)CC(=O)Nc1c(-c2ccc(F)c(F)c2)nn2c1C(=O)N[C@]1(CCOc3cc(F)cc(F)c31)C2` [Compound I-152]: the IC50 is 8.24 nM. Still for that read-out and setting: under `Cc1ccccc1-c1nn2c(c1NC(=O)CS(C)(=O)=O)C(=O)N[C@@]1(CCc3cc(OCC(F)(F)F)ccc31)C2` [Compound I-22] stands 93.5 nM; under `CS(=O)(=O)CC(=O)Nc1c(-c2ccc(F)cn2)nn2c1C(=O)N[C@]1(CCc3cc(F)cc(F)c31)C2` [Compound I-146], 9.7 nM.

Turning to `C[S@@](=N)(=O)CC(=O)Nc1c(-c2ccc(F)c(Cl)c2)nn2c1C(=O)N[C@@]1(CCc3cc(OCC(F)(F)F)ccc31)C2` (single isomer, unassigned) [Compound I-72], the IC50 worked out at 6.43 nM. In the case of `COCOc1ccc2c(c1)CCC21Cn2nc(-c3ccc(C#N)cn3)c(NC(=O)CS(C)(=O)=O)c2C(=O)N1` (stereo not drawn) [Compound I-54], the IC50 was found to be 5.88 nM.

Regarding `Cc1ccc(-c2nn3c(c2NC(=O)C2CS(=O)(=O)C2)C(=O)N[C@]2(CCc4cc(OCC(F)(F)F)ccc42)C3)nc1` [Compound I-40], the IC50 turned out to be 7.33 nM.

`CS(=O)(=O)CC(=O)Nc1c(-c2ccc(C#N)c(F)c2)nn2c1C(=O)N[C@@]1(CCc3cc(OCC(F)(F)F)ccc31)C2` [Compound I-51]: the IC50 is 1.32 nM.

Turning to `CS(=O)(=O)CC(=O)Nc1c(-c2cc(F)c(F)c(F)c2)nn2c1C(=O)N[C@@]1(CCc3cc(OCC(F)(F)F)ccc31)C2` [Compound I-36], the IC50 worked out at 0.617 nM. The same measure, in the same setting: under `Cc1ccc(-c2nn3c(c2NC(=O)CS(C)(=O)=O)C(=O)NC2(CN(c4ccc(C(F)(F)F)cc4)C2)C3)nc1` [Compound I-65] stands 0.935 nM; under `N#Cc1ccc(-c2nn3c(c2NC(=O)COC(F)(F)F)C(=O)N[C@]2(CCc4cc(OCC(F)(F)F)ccc42)C3)nc1` [Compound I-12], 9.48 nM.

As for `CS(=O)(=O)CC(=O)Nc1c(-c2ccc(OC3CC3)cc2)nn2c1C(=O)N[C@]1(CCc3cc(OCC(F)(F)F)ccc31)C2` [Compound I-86], the IC50 was 131 nM. The same measure, in the same setting: under `CS(=O)(=O)CC(=O)Nc1c(-c2ccc(F)cc2)nn2c1C(=O)N[C@@]1(CCc3cc(OCC(F)(F)F)ccc31)C2` [Compound I-23] stands 1.2 nM; under `CCCCCc1nn2c(c1NC(=O)CS(C)(=O)=O)C(=O)N[C@@]1(CCOc3cc(OCC(F)(F)F)ccc31)C2` [Compound I-113], 1.58 nM; under `CS(=O)(=O)CC(=O)Nc1c(-c2ccc(S(C)(=O)=O)cc2)nn2c1C(=O)N[C@]1(CCc3cc(OCC(F)(F)F)ccc31)C2` [Compound I-96], 208 nM. The same measure, in the same setting: under `CS(=O)(=O)CC(=O)Nc1c(-c2ccc(C(F)F)cc2)nn2c1C(=O)N[C@]1(CCc3cc(OCC(F)(F)F)ccc31)C2` [Compound I-80] stands 1.28 nM.

Test system in another series: not listed separately
Kind of series: Metabolism stability test (human liver microsomes). The series is classed as in vitro ADME. The conditions noted are these: compound concentration 0.5 μmol/L, 37° C., 30 minutes, NADPH. How it is done: Using commercially available pooled human hepatic microsomes, the compound of the present invention was reacted for a constant time, a remaining rate was calculated by comparing a reacted sample and an unreacted sample, thereby, a degree of metabolism of the compound of the present invention in liver was assessed.
A reaction was performed (oxidative reaction) at 37° C. for 0 minute or 30 minutes in the presence of 1 mmol/L NADPH in 0.2 mL of a buffer (50 mmol/L Tris-HCl pH 7.4, 150 mmol/L potassium chloride, 10 mmol/L magnesium chloride) containing 0.5 mg protein/mL of human liver microsomes. After the reaction, 50 μL of the reaction solution was added to 100 μL of a methanol/acetonitrile=1/1 (v/v) solution, mixed and centrifuged at 3000 rpm for 15 minutes. The compound of the present invention in the supernatant was quantified by LC/MS/MS, and a remaining amount of the compound of the present invention after the reaction was calculated, letting a compound amount at 0 minute reaction time to be 100%.
The compound `N#Cc1ccc(-c2nn3c(c2NC(=O)c2ccno2)C(=O)N[C@@]2(CCc4cc(OCC(F)(F)F)ccc42)C3)nc1` [Compound I-13] displayed a Remaining rate of 76%. Still for that read-out and setting: the result for `CS(=O)(=O)CC(=O)Nc1c(-c2ccc(F)cc2)nn2c1C(=O)NC1(CN(c3ccc(C(F)(F)F)cc3)C1)C2` [Compound I-61] reads 95.6%.
